Laboratory results: ChEMBL document CHEMBL1156824, “Physicochemical space for optimum oral bioavailability: contribution of human intestinal absorption and first-pass elimination” (J Med Chem, 2010)

How the values were obtained:
Homo sapiens [1] = organism: Homo sapiens; assay: Fraction escaping hepatic elimination in human; details: in vivo
[2] = Volume of distribution at steady state in human; details: in vivo
Homo sapiens [3] = organism: Homo sapiens; assay: Hepatic clearance in human; details: in vivo
clinical = details: human, in vivo
Homo sapiens [4] = organism: Homo sapiens; assay: Fraction absorbed in human; details: in vivo
Homo sapiens [5] = organism: Homo sapiens; assay: Fraction escaping gut-wall elimination in human; details: in vivo
Homo sapiens [6] = assay: Oral bioavailability in human; details: in vivo

SMILES | Fh (Homo sapiens [1]) | Vd [2] | CL (Homo sapiens [3]) | CL renal (clinical) | Fa (Homo sapiens [4]) | Fg (Homo sapiens [5]) | F_fraction (Homo sapiens [6])
CC(C)(C)NC(=O)[C@@H]1C[C@@H]2CCCC[C@@H]2CN1C[C@@H](O)[C@H](Cc1ccccc1)NC(=O)[C@H](CC(N)=O)NC(=O)c1ccc2ccccc2n1 | 0.45 | – | – | – | – | – | –
CCCc1nc(C)c2c(=O)[nH]c(-c3cc(S(=O)(=O)N4CCN(CC)CC4)ccc3OCC)nn12 | – | 3 L/kg | – | – | – | – | –
CC(=O)Nc1ccc(O)cc1 [ACETAMINOPHEN] | – | 1 L/kg | – | – | – | – | –
CC(C)(C)NCC(O)c1ccc(O)c(CO)c1 (centres undefined) [ALBUTEROL] | 0.88 | – | – | – | – | – | –
Cc1nnc2n1-c1ccc(Cl)cc1C(c1ccccc1)=NC2 [ALPRAZOLAM] | – | 0.8 L/kg | 0.6 mL/min/kg | 0.1 mL/min/kg | – | – | –
CCCCc1oc2ccccc2c1C(=O)c1cc(I)c(OCCN(CC)CC)c(I)c1 [AMIODARONE] | 0.92 | – | – | – | 1 | 0.71 | –
CCN1CCCC1CNC(=O)c1cc(S(=O)(=O)CC)c(N)cc1OC (centres undefined) [AMISULPRIDE] | – | 5.8 L/kg | 3.4 mL/min/kg | – | – | – | –
CC(C)NCC(O)COc1ccc(CC(N)=O)cc1 (centres undefined) [ATENOLOL] | 1 | – | – | – | – | 1 | –
CN1[C@@H]2CC[C@H]1C[C@@H](OC(=O)C(CO)c1ccccc1)C2 (some centres undefined) [ATROPINE] | 0.86 | – | – | – | 0.98 | 0.59 | –
CC(C)NCC(O)COc1ccc(CCOCC2CC2)cc1 (centres undefined) [BETAXOLOL] | 0.88 | – | 2.7 mL/min/kg | – | 1 | 1.01 | 0.89
CC1=C(C(=O)O)N2C(=O)[C@@H](NC(=O)[C@H](N)c3ccccc3)[C@H]2SC1 [CEPHALEXIN ANHYDROUS] | – | – | – | – | – | 0.91 | –
CN/C(=N/CCSCc1nc[nH]c1C)NC#N [CIMETIDINE] | 0.99 | – | 0.2 mL/min/kg | – | 0.68 | – | 0.68
O=C(O)c1cn(C2CC2)c2cc(N3CCNCC3)c(F)cc2c1=O [CIPROFLOXACIN] | 0.94 | – | – | – | 0.75 | 0.98 | –
Nc1ccc(S(=O)(=O)c2ccc(N)cc2)cc1 [DAPSONE] | 0.98 | – | 0.4 mL/min/kg | – | – | – | –
CNCCCN1c2ccccc2CCc2ccccc21 [DESIPRAMINE] | 0.53 | – | – | – | – | – | 0.4
O=C(O)Cc1ccccc1Nc1c(Cl)cccc1Cl [DICLOFENAC] | 0.85 | – | 3.5 mL/min/kg | 0.035 mL/min/kg | – | – | –
COc1ccc(C(=O)Nc2ccccc2CCC2CCCCN2C)cc1 (centres undefined) [ENCAINIDE] | – | – | 12.2 mL/min/kg | 0.8 mL/min/kg | – | – | 0.3
CC[C@H]1OC(=O)[C@H](C)[C@@H](O[C@H]2C[C@@](C)(OC)[C@@H](O)[C@H](C)O2)[C@H](C)[C@@H](O[C@@H]2O[C@H](C)C[C@H](N(C)C)[C@H]2O)[C@](C)(O)C[C@@H](C)C(=O)[C@H](C)[C@@H](O)[C@]1(C)O [ERYTHROMYCIN] | – | – | 5.3 mL/min/kg | 0.3 mL/min/kg | – | – | 0.35
O=C1NCC2(CCN(CCc3ccccc3)CC2)O1 [FENSPIRIDE] | – | 3 L/kg | 0.8 mL/min/kg | 1.8 mL/min/kg | – | – | –
CN1CCN(c2c(F)cc3c(=O)c(C(=O)O)cn(CCF)c3c2F)CC1 [FLEROXACIN] | – | 1.3 L/kg | 0.9 mL/min/kg | – | – | – | –
CC(C)n1c(/C=C/C(O)CC(O)CC(=O)O)c(-c2ccc(F)cc2)c2ccccc21 (centres undefined) [FLUVASTATIN] | 0.3 | – | – | – | – | – | –
O=C(O)P(=O)(O)O [FOSCARNET] | – | 0.5 L/kg | 0.4 mL/min/kg | – | – | – | –
Nc1nc(O)c2ncn(COC(CO)CO)c2n1 [GANCICLOVIR] | – | 1 L/kg | 0.5 mL/min/kg | – | – | – | 0.09
O=[N+]([O-])O[C@@H]1CO[C@H]2[C@@H]1OC[C@@H]2O [ISOSORBIDE MONONITRATE] | – | 0.7 L/kg | 1.9 mL/min/kg | – | – | – | –
O=C(c1ccc(F)cc1)C1CCN(CCn2c(=O)[nH]c3ccccc3c2=O)CC1 [KETANSERIN] | – | – | 6.6 mL/min/kg | 0.1 mL/min/kg | – | – | 0.5
Cc1c(OCC(F)(F)F)ccnc1C[S+]([O-])c1nc2ccccc2[nH]1 (centres undefined) [LANSOPRAZOLE] | – | – | 4.4 mL/min/kg | 0.044 mL/min/kg | – | – | 0.85

SMILES | Fh (Homo sapiens [1]) | Vd [2] | CL (Homo sapiens [3]) | CL renal (clinical) | Fa (Homo sapiens [4]) | Fg (Homo sapiens [5]) | F_fraction (Homo sapiens [6])
CC[C@H](C)C(=O)O[C@H]1C[C@@H](C)C=C2C=C[C@H](C)[C@H](CC[C@@H]3C[C@@H](O)CC(=O)O3)[C@H]21 [LOVASTATIN] | 0.72 | – | 6.5 mL/min/kg | 0.7 mL/min/kg | – | – | –
CN(C)C(=N)N=C(N)N [METFORMIN] | 1 | – | – | – | – | – | –
Cc1ncc([N+](=O)[O-])n1CCO [METRONIDAZOLE] | – | 0.4 L/kg | 0.7 mL/min/kg | 0.2 mL/min/kg | – | – | –
CN(C)c1ccc(O)c2c1C[C@H]1C[C@H]3[C@H](N(C)C)C(O)=C(C(N)=O)C(=O)[C@@]3(O)C(O)=C1C2=O [MINOCYCLINE] | – | – | 1.1 mL/min/kg | 0.1 mL/min/kg | – | – | 1
CCc1nn(CCCN2CCN(c3cccc(Cl)c3)CC2)c(=O)n1CCOc1ccccc1 [NEFAZODONE] | – | – | 7.1 mL/min/kg | 0.4 mL/min/kg | – | – | 0.19
COC(=O)C1=C(C)NC(C)=C(C(=O)OCCN(C)Cc2ccccc2)C1c1cccc([N+](=O)[O-])c1 (centres undefined) [NICARDIPINE] | – | 1 L/kg | – | – | – | – | –
CN1CCC[C@H]1c1cccnc1 [NICOTINE] | 0.35 | – | 15 mL/min/kg | – | 1 | 0.86 | 0.3
CNC(=C[N+](=O)[O-])NCCSCc1csc(CN(C)C)n1 [NIZATIDINE] | – | 1 L/kg | 2.5 mL/min/kg | – | – | – | –
CN1Cc2c(N)cccc2C(c2ccccc2)C1 (centres undefined) [NOMIFENSINE] | – | 6 L/kg | 9.5 mL/min/kg | – | – | – | –
CNCCC=C1c2ccccc2CCc2ccccc21 [NORTRIPTYLINE] | 0.57 | – | 9.8 mL/min/kg | – | 1 | 0.89 | 0.51
O=C(O)c1cc(/N=N/c2ccc(O)c(C(=O)O)c2)ccc1O [OLSALAZINE] | – | 0.07 L/kg | 0.9 mL/min/kg | 0.3 mL/min/kg | – | – | –
COc1ccc2[nH]c([S+]([O-])Cc3ncc(C)c(OC)c3C)nc2c1 (centres undefined) [OMEPRAZOLE] | – | – | 8.3 mL/min/kg | 0.1 mL/min/kg | – | – | 0.53
CCOc1ccccc1OC(c1ccccc1)C1CNCCO1 (centres undefined) [REBOXETINE] | – | – | 0.8 mL/min/kg | 0.041 mL/min/kg | – | – | 0.95
CO[C@H]1/C=C/O[C@@]2(C)Oc3c(C)c(O)c4c(c3C2=O)C2=NC3(CCN(CC(C)C)CC3)NC2=C(NC(=O)/C(C)=C\C=C\[C@H](C)[C@H](O)[C@@H](C)[C@@H](O)[C@@H](C)[C@H](OC(C)=O)[C@@H]1C)C4=O [RIFABUTIN] | 0.91 | – | 2 mL/min/kg | – | – | – | 0.2
CN1[C@@H]2C[C@@H](OC(=O)[C@H](CO)c3ccccc3)C[C@H]1[C@@H]1O[C@@H]12 [SCOPOLAMINE] | 0.35 | – | – | – | – | 0.82 | –
Cc1cc(NS(=O)(=O)c2ccc(N)cc2)no1 [SULFAMETHOXAZOLE] | 0.99 | – | – | – | 1 | 1.01 | –
CCN1CCCC1CNC(=O)c1cc(S(N)(=O)=O)ccc1OC (centres undefined) [SULPIRIDE] | – | 2.72 L/kg | 0.1 mL/min/kg | – | – | – | 0.27
CC(C(=O)O)c1ccc(C(=O)c2cccs2)cc1 (centres undefined) [SUPROFEN] | – | 0.04 L/kg | 0.7 mL/min/kg | 0.0357 mL/min/kg | – | – | –
CCOc1ccccc1OCCN[C@H](C)Cc1ccc(OC)c(S(N)(=O)=O)c1 [TAMSULOSIN] | – | – | 0.5 mL/min/kg | 0.1 mL/min/kg | – | – | 1
CCCCNC(=O)NS(=O)(=O)c1ccc(C)cc1 [TOLBUTAMIDE] | 0.99 | – | – | 0.0002 mL/min/kg | – | – | –
COc1cc(Cc2cnc(N)nc2N)cc(OC)c1OC [TRIMETHOPRIM] | 0.95 | – | – | – | 0.97 | 0.83 | 0.76
COc1ccc(C(CN(C)C)C2(O)CCCCC2)cc1 (centres undefined) [VENLAFAXINE] | – | – | 13.4 mL/min/kg | 0.6 mL/min/kg | – | – | 0.42
Nc1ccn([C@H]2CC[C@@H](CO)O2)c(=O)n1 [ZALCITABINE] | 0.95 | – | 1.1 mL/min/kg | 4.5 mL/min/kg | – | – | –
O=C1Cc2cc(CCN3CCN(c4nsc5ccccc45)CC3)c(Cl)cc2N1 [ZIPRASIDONE] | – | 1 L/kg | 5 mL/min/kg | 0.1 mL/min/kg | – | – | –
Cc1ccc(-c2nc3ccc(C)cn3c2CC(=O)N(C)C)cc1 [ZOLPIDEM] | – | – | 4.3 mL/min/kg | 0.043 mL/min/kg | – | – | 0.72
